{"source": "paper doi:10.1101/2024.08.19.608619", "about": "“Discovery of potent SARS-CoV-2 nsp3 macrodomain inhibitors uncovers lack of translation to cellular antiviral response” (bioRxiv, 2024)", "key": {"[1]": {"target": "T1, SARS-CoV-2 nsp3-mac1 (Severe acute respiratory syndrome coronavirus 2, UniProt P0DTD1)", "assay": "biochemical", "type": "biochemical", "conditions": "SARS-CoV-2 nsp3 macrodomain TR-FRET single point"}, "[2]": {"target": "T1, SARS-CoV-2 nsp3-mac1", "assay": "biochemical", "set-up": "SARS-CoV-2 nsp3 macrodomain TR-FRET single point, per cent inhibition, n=2"}, "[3]": {"conditions": "read-out: perc_inhibition_mean, batch_name=ASAP-0000405-001"}, "[4]": {"conditions": "read-out: perc_inhibition_mean, batch_name=ASAP-0000284-001"}, "[5]": {"conditions": "read-out: perc_inhibition_mean, batch_name=ASAP-0000315-001"}, "[6]": {"conditions": "read-out: perc_inhibition_mean, batch_name=ASAP-0000356-001"}, "[7]": {"conditions": "read-out: perc_inhibition_mean, batch_name=ASAP-0000334-001"}, "[8]": {"conditions": "read-out: perc_inhibition_mean, batch_name=ASAP-0000244-001"}, "[9]": {"conditions": "read-out: perc_inhibition_mean, batch_name=ASAP-0000357-001"}, "[10]": {"conditions": "read-out: perc_inhibition_mean, batch_name=ASAP-0000250-001"}}, "note": "Like-named read-outs stand apart in the source and are kept apart here.", "data": [{"smiles": "Fc1ccc(Oc2cc(CNc3ncnc4nc[nH]c34)ccn2)cc1", "note": "[ASAP-0000021]", "values": [{"measurement": "perc_inhibition_mean", "setting": "[1]; concentration 50.0 uM", "value": 2.011, "unit": "%"}, {"measurement": "inhibition at 50 µM", "setting": "[2]; read-out: perc_inhibition_mean, batch_name=ASAP-0000021-001", "value": 2.01, "unit": "%"}]}, {"smiles": "O=C(c1ccncc1)N1CCC(c2ccn3ncc(C(=O)N4CCCCC4)c3c2)CC1", "note": "[ASAP-0000405]", "values": [{"measurement": "perc_inhibition_mean", "setting": "[1]; concentration 49.75 uM", "value": 10.851, "unit": "%"}, {"measurement": "perc_inhibition_mean", "setting": "[1]; concentration 99.5 uM", "value": 26.497, "unit": "%"}, {"measurement": "inhibition at 49.75 µM", "setting": "[2]; [3]", "value": 10.9, "unit": "%"}, {"measurement": "inhibition at 99.5 µM", "setting": "[2]; [3]", "value": 26.5, "unit": "%"}]}, {"smiles": "Cc1cccc(OCCNc2ncnc3nc[nH]c23)c1", "note": "[ASAP-0000014]", "values": [{"measurement": "perc_inhibition_mean", "setting": "[1]; concentration 50.0 uM", "value": 3.91, "unit": "%"}, {"measurement": "inhibition at 50 µM", "setting": "[2]; read-out: perc_inhibition_mean, batch_name=ASAP-0000014-001", "value": 3.91, "unit": "%"}]}, {"smiles": "FC(F)(F)c1nc(NC[C@H]2CCCO2)c2nc[nH]c2n1", "note": "[ASAP-0000088]", "values": [{"measurement": "perc_inhibition_mean", "setting": "[1]; concentration 50.0 uM", "value": 2.501, "unit": "%"}, {"measurement": "inhibition at 50 µM", "setting": "[2]; read-out: perc_inhibition_mean, batch_name=ASAP-0000088-001", "value": 2.5, "unit": "%"}]}, {"smiles": "O=C(Cn1c(=O)[nH]c2ccccc21)Nc1cnc2[nH]ncc2c1", "note": "[ASAP-0000137]", "values": [{"measurement": "perc_inhibition_mean", "setting": "[1]; concentration 50.0 uM", "value": 1.776, "unit": "%"}, {"measurement": "inhibition at 50 µM", "setting": "[2]; read-out: perc_inhibition_mean, batch_name=ASAP-0000137-001", "value": 1.78, "unit": "%"}]}, {"smiles": "Cc1nc(C(=O)N2CCC(c3ccn4ncc(C(=O)N5CCCCC5)c4c3)CC2)c(=O)[nH]c1C", "note": "[ASAP-0000284]", "values": [{"measurement": "perc_inhibition_mean", "setting": "[1]; concentration 49.75 uM, n=2", "value": 26.409, "unit": "%"}, {"measurement": "perc_inhibition_mean", "setting": "[1]; concentration 99.5 uM, n=2", "value": 44.216, "unit": "%"}, {"measurement": "inhibition at 49.75 µM", "setting": "[2]; [4]", "value": 26.4, "unit": "%"}, {"measurement": "inhibition at 99.5 µM", "setting": "[2]; [4]", "value": 44.2, "unit": "%"}]}, {"smiles": "CC(C)c1c[nH]nc1NC(=O)c1ccc(NC(=O)Nc2ccccc2)cc1", "note": "[ASAP-0000315]", "values": [{"measurement": "perc_inhibition_mean", "setting": "[1]; concentration 49.75 uM, n=2", "value": 6.988, "unit": "%"}, {"measurement": "perc_inhibition_mean", "setting": "[1]; concentration 99.5 uM, n=2", "value": 8.502, "unit": "%"}, {"measurement": "inhibition at 49.75 µM", "setting": "[2]; [5]", "value": 6.99, "unit": "%"}, {"measurement": "inhibition at 99.5 µM", "setting": "[2]; [5]", "value": 8.5, "unit": "%"}]}, {"smiles": "O=C(Nc1nc2ccc(F)cc2[nH]1)c1cc(N2CCNC2=O)ccc1F", "note": "[ASAP-0000067]", "values": [{"measurement": "perc_inhibition_mean", "setting": "[1]; concentration 50.0 uM", "value": -7.707, "unit": "%"}, {"measurement": "inhibition at 50 µM", "setting": "[2]; read-out: perc_inhibition_mean, batch_name=ASAP-0000067-001", "value": -7.71, "unit": "%"}]}, {"smiles": "O=C(Nc1cnc2[nH]ncc2c1)C1CCN(c2ccc3nncn3n2)CC1", "note": "[ASAP-0000016]", "values": [{"measurement": "perc_inhibition_mean", "setting": "[1]; concentration 50.0 uM", "value": 16.966, "unit": "%"}, {"measurement": "inhibition at 50 µM", "setting": "[2]; read-out: perc_inhibition_mean, batch_name=ASAP-0000016-001", "value": 17, "unit": "%"}]}, {"smiles": "O=C(CNc1ncnc2[nH]ccc12)N1CCc2ccccc21", "note": "[ASAP-0000034]", "values": [{"measurement": "perc_inhibition_mean", "setting": "[1]; concentration 50.0 uM", "value": 1.193, "unit": "%"}, {"measurement": "inhibition at 50 µM", "setting": "[2]; read-out: perc_inhibition_mean, batch_name=ASAP-0000034-001", "value": 1.19, "unit": "%"}]}, {"smiles": "O=C(Nc1ccc(C(=O)NCc2c(C(=O)O)[nH]c3ccccc23)cc1)NC1CC1", "note": "[ASAP-0000131]", "values": [{"measurement": "perc_inhibition_mean", "setting": "[1]; concentration 50.0 uM", "value": 86.217, "unit": "%"}, {"measurement": "inhibition at 50 µM", "setting": "[2]; read-out: perc_inhibition_mean, batch_name=ASAP-0000131-001", "value": 86.2, "unit": "%"}]}, {"smiles": "Cc1cc(NCc2cnc3c(c2)NC(=O)CO3)cnc1C", "note": "[ASAP-0000118]", "values": [{"measurement": "perc_inhibition_mean", "setting": "[1]; concentration 50.0 uM", "value": 4.531, "unit": "%"}, {"measurement": "inhibition at 50 µM", "setting": "[2]; read-out: perc_inhibition_mean, batch_name=ASAP-0000118-001", "value": 4.53, "unit": "%"}]}, {"smiles": "NC1(C(=O)N(CCC(=O)N2CCNCC2)Cc2cccc(Cl)c2)CC(F)(F)C1", "note": "[ASAP-0000356]", "values": [{"measurement": "perc_inhibition_mean", "setting": "[1]; concentration 49.75 uM", "value": -3.48, "unit": "%"}, {"measurement": "perc_inhibition_mean", "setting": "[1]; concentration 99.5 uM", "value": -1.174, "unit": "%"}, {"measurement": "inhibition at 49.75 µM", "setting": "[2]; [6]", "value": -3.48, "unit": "%"}, {"measurement": "inhibition at 99.5 µM", "setting": "[2]; [6]", "value": -1.17, "unit": "%"}]}, {"smiles": "O=C(CCN(Cc1cccc(Cl)c1)C(=O)c1cnon1)N1CCNCC1", "note": "[ASAP-0000334]", "values": [{"measurement": "perc_inhibition_mean", "setting": "[1]; concentration 49.75 uM, n=2", "value": -2.442, "unit": "%"}, {"measurement": "perc_inhibition_mean", "setting": "[1]; concentration 99.5 uM, n=2", "value": -1.082, "unit": "%"}, {"measurement": "inhibition at 49.75 µM", "setting": "[2]; [7]", "value": -2.44, "unit": "%"}, {"measurement": "inhibition at 99.5 µM", "setting": "[2]; [7]", "value": -1.08, "unit": "%"}]}, {"smiles": "c1nc(N2CCC[C@@H](c3nc4c(s3)CCC4)C2)c2c[nH]nc2n1", "note": "[ASAP-0000055]", "values": [{"measurement": "perc_inhibition_mean", "setting": "[1]; concentration 50.0 uM", "value": 3.826, "unit": "%"}, {"measurement": "inhibition at 50 µM", "setting": "[2]; read-out: perc_inhibition_mean, batch_name=ASAP-0000055-001", "value": 3.83, "unit": "%"}]}, {"smiles": "Cc1[nH]c2ncnc(NC(=O)CCc3ccccc3)c2c1C", "note": "[ASAP-0000081]", "values": [{"measurement": "perc_inhibition_mean", "setting": "[1]; concentration 50.0 uM", "value": 5.021, "unit": "%"}, {"measurement": "inhibition at 50 µM", "setting": "[2]; read-out: perc_inhibition_mean, batch_name=ASAP-0000081-001", "value": 5.02, "unit": "%"}]}, {"smiles": "C[C@]1(C(=O)O)CCCN1C(=O)c1ncnc2[nH]ccc12", "note": "[ASAP-0000244]", "values": [{"measurement": "perc_inhibition_mean", "setting": "[1]; concentration 50.0 uM", "value": -5.285, "unit": "%"}, {"measurement": "perc_inhibition_mean", "setting": "[1]; concentration 100.0 uM", "value": 5.665, "unit": "%"}, {"measurement": "inhibition at 50 µM", "setting": "[2]; [8]", "value": -5.29, "unit": "%"}, {"measurement": "inhibition at 100 µM", "setting": "[2]; [8]", "value": 5.67, "unit": "%"}]}, {"smiles": "O=C1CCC[C@@H](C(=O)N(CCC(=O)N2CCNCC2)Cc2cccc(Cl)c2)N1", "note": "[ASAP-0000357]", "values": [{"measurement": "perc_inhibition_mean", "setting": "[1]; concentration 49.75 uM", "value": 2.418, "unit": "%"}, {"measurement": "perc_inhibition_mean", "setting": "[1]; concentration 99.5 uM", "value": -3.31, "unit": "%"}, {"measurement": "inhibition at 49.75 µM", "setting": "[2]; [9]", "value": 2.42, "unit": "%"}, {"measurement": "inhibition at 99.5 µM", "setting": "[2]; [9]", "value": -3.31, "unit": "%"}]}, {"smiles": "CN(Cc1nccn1Cc1ccccc1)c1ncnc2[nH]ccc12", "note": "[ASAP-0000250]", "values": [{"measurement": "perc_inhibition_mean", "setting": "[1]; concentration 50.0 uM", "value": -7.218, "unit": "%"}, {"measurement": "perc_inhibition_mean", "setting": "[1]; concentration 100.0 uM", "value": -8.82, "unit": "%"}, {"measurement": "inhibition at 50 µM", "setting": "[2]; [10]", "value": -7.22, "unit": "%"}, {"measurement": "inhibition at 100 µM", "setting": "[2]; [10]", "value": -8.82, "unit": "%"}]}]}
